From US10093929B2, “Modular RNA regulators and methods” (STC.UNM, priority 2013, dated 2018)

What was measured:
[1] = system: RNase III; conditions: cited from earlier work
[2] = molecular target: FKBP12 (Homo sapiens, UniProt P62942); conditions: cited from earlier work
[3] = system: FKBP12-fusion proteins (GAL4DBD-FKBP, VPAD-FKBP); test: FK1012-inducible luciferase transcription assay in CHO cells; assay type: cell-based; conditions: 200 nM, 10 hours
Experimental: Previously, syntheses of FK1012 variants either involve multi-step transformations with 18% overall yields, or a single-step cross metathesis with 50% yield with a 22-hour reaction time. […] Using dithiothreitol (DTT) as the linker, two equivalents of tacrolimus and one equivalent of DTT were coupled under the TEC reaction condition to produce FK1012-DT (Compound 15, FIG. 12) in one step within 15 minutes in quantitative yield (FIG. 12, Scheme (a)). […] For the assay, two DNA constructs were prepared, each one encoding an FKBP12-fusion protein. […]
Cells in 24-well plates were lysed with 100 μL of 1× Passive Lysis Buffer (Promega Corporation, Madison, Wis.) at room temperature for 10 minutes on a shaker. […] 90 μL of Luciferase substrate solution (5 mg of D-luciferin and 7 mg of coenzyme A in 33mL of Luciferase reading buffer, which includes 20 mM tricine, 1.07 mM (MgCO3)4Mg(OH)2.5H2O, 2.67 mM MgSO4, 0.1 mM EDTA, 33.3 mM dithiothreitol and 0.53 mM ATP in water) was added into each well with cell lysates. The signal was read with a 3 s delay and 1 s integration with GLOMAX multi-detection system (Promega Corp., Madison, Wis.). Obtained data were analyzed by KALEIDAGRAPH (Synergy Software, Reading, Pa.).

FKBP12, sequence (P62942 whole entry, species assumed, the tested form may be a part): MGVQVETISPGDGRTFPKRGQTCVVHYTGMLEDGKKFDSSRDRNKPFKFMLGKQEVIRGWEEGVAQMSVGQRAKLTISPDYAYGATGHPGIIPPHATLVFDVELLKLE

## O=C1c2ccccc2C(=O)N1O [N-hydroxyphthalimide]
[1]
  affinity as RNase III inhibitor: low affinity

## CCC(C)(C)C(=O)C(=O)N1CCCC[C@H]1C(=O)O[C@H](CCc1ccc(OC)c(OC)c1)c1cccc(N)c1 [SLF, (1R)-1-(3-aminophenyl)-3-(3,4-dimethoxyphenyl)propyl ester-1-(3,3-dimethyl-1,2-dioxopentyl)-2S-piperidinecarboxylic acid]
[2]
  decrease of affinity for FKBP12 compared to tacrolimus: 10 fold

## C=CC[C@@H]1/C=C(\C)C[C@H](C)C[C@H](OC)[C@H]2O[C@@](O)(C(=O)C(=O)N3CCCC[C@H]3C(=O)O[C@H](/C(C)=C/[C@@H]3CC[C@@H](O)[C@H](OC)C3)[C@H](C)[C@@H](O)CC1=O)[C@H](C)C[C@@H]2OC [tacrolimus, Tacrolimus]
[3]
  induction of luciferase (compared to the no drug control): not observed
